Data on six molecules can be found in ChEMBL document CHEMBL2029311, “Design, synthesis, and evaluation of a novel class of 2,3-disubstituted-tetrahydro-β-carboline derivatives” (2012).

For one experiment, the system named is Mus musculus. Briefly: Antiinflammatory activity in ICR mouse assessed as inhibition of xylene-induced ear edema at 10 umol/kg, po administered 30 mins before xylene challenge relative to control. It counts as functional.
What is called inhibition in vivo is the drop in the measured response relative to a control, in per cent. For the molecule `CC(=O)OC[C@H]1O[C@@H](OC(C)=O)[C@H](NC(=O)[C@@H]2Cc3c([nH]c4ccccc34)CN2C(=O)OC(C)(C)C)[C@@H](OC(C)=O)[C@@H]1OC(C)=O`, the inhibition in vivo at 10 µmol/kg worked out at 71.2%.

With `CC(=O)OC[C@H]1O[C@@H](OC(C)=O)[C@H](NC(=O)[C@@H]2Cc3c([nH]c4ccccc34)CN2C(=O)CNC(=O)OC(C)(C)C)[C@@H](OC(C)=O)[C@@H]1OC(C)=O`, the inhibition in vivo at 10 µmol/kg worked out at 58.6%. Same read-out and setting: with `C[C@H](N)C(=O)N1Cc2[nH]c3ccccc3c2C[C@H]1C(=O)N[C@H]1C(O)O[C@H](CO)[C@@H](O)[C@@H]1O` (mixture of isomers) the figure was 66%; with `C[C@H](NC(=O)OC(C)(C)C)C(=O)N1Cc2[nH]c3ccccc3c2C[C@H]1C(=O)N[C@H]1C(O)O[C@H](CO)[C@@H](O)[C@@H]1O` (mixture of isomers), 51.9%.

With `CC(=O)OC[C@H]1O[C@@H](OC(C)=O)[C@H](NC(=O)[C@@H]2Cc3c([nH]c4ccccc34)CN2C(=O)[C@H](C)NC(=O)OC(C)(C)C)[C@@H](OC(C)=O)[C@@H]1OC(C)=O`, the inhibition in vivo at 10 µmol/kg is 82%.

A further experiment has as its system Mus musculus. Briefly: Antiinflammatory activity in ICR mouse assessed as inhibition of xylene-induced ear edema at 100 mg/kg, po administered 30 mins before xylene challenge relative to control. The class given is functional.
Turning to `CC(=O)Oc1ccccc1C(=O)O` [ASPIRIN], the inhibition in vivo at 100 mg/kg was 89.5%.
